According to patent publication US11357823B2, “Method for treating cerebral stroke” (Suzhou Yabao Pharmaceutical R&D Co., Ltd., priority 2019, dated 2022):
Like-named read-outs stand apart in the source and are kept apart here.

Columns and labels:
[1] = system: co-cultured spontaneously transformed endothelial cell line and purified rat astrocytes; assay: blood-brain barrier (BBB) model in vitro; format: cell-based; conditions: BBB model injured after stimulation, then treated with A5 protein
Text: Blood brain barrier is composed of three components: brain microvascular endothelial cells, astrocytes and basement membrane. The damage of blood-brain barrier is one of the important pathology of stroke.
In the experiment, the blood-brain barrier model was established by co-culturing spontaneously transformed endothelial cell line and purified rat astrocytes. The blood-brain barrier (BBB) model in vitro was injured after stimulation, and then treated with A5 protein.

[2] = system: primary purified microglia; assay: LPS-induced over activation of primary purified microglia; format: cell-based; conditions: LPS-stimulated primary microglia; MTT, cellular immunochemistry
Text: Microglia plays an important role in the inflammatory process of the central nervous system. The moderate activation of microglia can protect neurons, but the over activated microglia will release a large number of neurotoxic factors, such as […], which will lead to the occurrence of neurodegenerative diseases. Lipopolysaccharide (LPS) can activate microglia, which leads to the over activation of microglia and the damage of neurons. A5 was used to observe the effect of LPS on the over activation of microglia.
During the experiment, LPS was used to stimulate the primary purified microglia as the control group, and A5 protein was added as the experimental group. For the above treatment, MTT method was used to detect cell viability, and cellular immunochemistry method was used to observe cell morphological changes. […] Therefore, A5 protein can be used to inhibit the over activation of immune cells in the brain, such as microglia.

[3] = system: rat model of focal cerebral ischemia; assay: rat model of focal cerebral ischemia established by light irradiation; format: in vivo; conditions: annexin A5 injected into the caudal vein
Method: (§1) It was confirmed by the rat model of ischemia-reperfusion that the annexin A5 could reduce the area of cerebral infarction, improve the symptoms of neurological deficits and promote long-term motor recovery in rats. For example, a rat model of focal cerebral ischemia was established by light irradiation, and then annexin A5 was injected into the caudal vein. […] Take another example, the rat model of hemorrhagic stroke was established by intracerebral injection of autologous arterial blood, and then the rats were injected with annexin A5 injection via caudal vein.

SD rats = assay: Toxicity of A5 protein in single intravenous injection in SD rats; format: in vivo
Method: In this study, A5 protein was injected intravenously once in SD rats to observe the acute toxicity, severity and main toxic target organs. The dosage was 0 (blank adjuvant), 1000, 3000 and 9000 μg/kg respectively. After the intravenous injection, the animal's posture, gait, reaction, nerve activity, appetite, fur, eyes, ears, mouth, nose, limbs, breath, feces and other clinical symptoms were observed continuously. After that, the recovery from toxic reaction was observed continuously until the 14th day after administration. The animals were dissected and examined for macropathology 15 days after administration. […] The maximum-tolerated dose (MTD) of single intravenous injection of A5 protein was more than […].

cortical neurons = assay: NMDA-induced excitotoxic damage on cortical neurons; format: cell-based, SD rats; conditions: A5 pretreatment then NMDA, compared with NMDA group; trypan blue, TUNEL, immunofluorescence
Text: Example 5 studied the neuroprotective effect of A5 protein on NMDA (N-methyl-D-aspartate)—induced excitotoxic damage on cortical neurons in rats. NMDA can activate NMDA receptor to increase Ca^2+ content in brain tissue, and NOS is activated in a large amount, which leads to a series of physiological or pathological changes such as the synthesis of a large number of NO, causing damage to neurons in brain. In order to observe the neuroprotective effect of A5 protein on neuronal damage induced by excitotoxicity, the neuron was pretreated with A5 protein.
In the experiment, 17 day embryonic SD rats were selected and the cortical neurons were cultured. Then the neurons were divided into control group, NMDA group and A5 pretreatment group. The neurons in NMDA group were added with NMDA for exposure, and the neurons in A5 pretreatment group were incubated with A5 protein for a period of time, and then added with NMDA. For different treatment groups, trypan blue staining was used to evaluate cell viability, TUNEL staining was used to detect apoptosis cells and immunofluorescence cytochemistry was used to detect neuron morphology.

cynomolgus monkeys = assay: Toxicity of A5 protein in single intravenous injection in cynomolgus monkeys; format: in vivo
Method: A single intravenous injection of A5 protein was used to observe the acute toxicity and its severity and main toxic target organs in cynomolgus monkeys. The dosage was 0 (blank adjuvant), 500, 1500 and 4500 μg/kg respectively. After the single intravenous injection, observe the clinical symptoms of the animals (including feces, appearance, respiration, nerve reaction, activity status, etc.) until the 15th day after the administration. After administration, the food intake was measured once a day and the body weight was measured once a week. The body temperature, blood pressure and electrocardiograph (ECG) of the animals were measured before and after administration on the day of administration, and again on the 1st, 7th and 15th day of administration. Hematology (including blood coagulation) and serum biochemical examination were carried out for all animals on the 1st, 7th and 15th day after administration, and urine examination was carried out on the 14th day after administration. On the 15th day after administration, the animals were dissected for macropathological examination, and if necessary, for histopathological examination. […] In this experiment, the maximum-tolerated dose (MTD) of cynomolgus monkeys was more than […].

primary cortical neurons = assay: Oxygen glucose deprivation (OGD) model with primary cortical neurons; format: cell-based; conditions: 8 hours anoxic culture, A5 in DMEM during 24 hours reoxygenation; CCK-8, flow cytometry
Method: Oxygen glucose deprivation (OGD) model is a stimulation model simulating ischemia/hypoxia at the cell level. By changing the cell culture conditions, such as putting the cells into the hypoxia box or into the sugar free medium, the damage of cells under the condition of ischemia/hypoxia is simulated.
OGD model was established with primary cortical neurons. The cells in the culture plate were washed twice with PBS, and then the glucose-free DMEM exchanged with 95% N2+5% CO2 for 30 minutes was added. Then the cells were quickly placed in 37° C., 94% N2+1% O2+5% CO2 hypoxia incubator. After 8 hours of anoxic culture, the corresponding DMEM medium (i.e. DMEM medium containing A5) was added, and then put the plate into a 37° C. 5% CO2 cell incubator for 24 hours of reoxygenation. After 24 hours of culture, morphological changes were observed under inverted microscope, cell survival rate was detected by CCK-8 colorimetry and apoptosis rate was detected by flow cytometry. At the same time, the treatment group of normoxia and normal glucose was set as the control group.

[4] = system: rat model of hemorrhagic stroke; assay: rat model of hemorrhagic stroke by intracerebral injection of autologous arterial blood; format: in vivo; conditions: annexin A5 injection via caudal vein
Method: as §1

[5] = system: acute cerebral ischemia-reperfusion injury in rats; format: in vivo; conditions: for Scope of cerebral infarction (%): Edaravone 6.0 mg/kg i.v., TTC staining 24 hours after ischemia, Mean ± SEM, model group 42.53 ± 3.27

| Molecule | repair of damaged blood-brain barrier [1] | over activation of microglia induced by LPS [2] | area of cerebral infarction [3] | neurological deficit symptoms [3] | macropathological examination of tissues and organs (SD rats; 15 days after administration) | weight changes (SD rats; female and male animals in the administration group) | clinical symptoms (SD rats; single i.v. 1000, 3000 and 9000 μg/kg, observed to day 14) | damage of excitatory toxicity to neurons (cortical neurons) | prothrombin time (PT), activated partial thromboplastin time (APTT) and thrombin time (TT) (cynomolgus monkeys; 1st day and 15th day after administration) | clinical symptoms, injection site, body weight, food intake, body temperature, blood pressure, ECG, urinalysis, serum biochemical and pathological examination (cynomolgus monkeys; single i.v. 500, 1500 and 4500 μg/kg, to day 15) | damage of neurons caused by oxygen glucose deprivation (primary cortical neurons) | area of cerebral infarction [4] | neurological deficit symptoms [4] | bleeding risk ([5]; experimental group treated with annexin A5, MCAO rats) | Scope of cerebral infarction (%) [5] [%] | Scope of cerebral infarction (%) ([5]; listed as edaravone) |
| --- | --- | --- | --- | --- | --- | --- | --- | --- | --- | --- | --- | --- | --- | --- | --- | --- |
| A5: recombinant human full-length annexin A5 expressed in E. coli, SEQ ID NO:1, 319 amino acids, N-terminal alanine not acetylated | repair the damaged blood-brain barrier | inhibit the over activation of microglia induced by LPS | decreased significantly | improved | no abnormality was found | normal | normal | reduce the damage of excitatory toxicity to neurons | no significant change | no significant changes | reduce the damage of neurons caused by oxygen glucose deprivation | decreased | significantly improved | no bleeding risk |  |  |
| CC1=NN(c2ccccc2)C(=O)C1 [Edaravone] |  |  |  |  |  |  |  |  |  |  |  |  |  |  | 35.93 ± 3.94 | trend of reducing |
